Test results from the NIST ThermoML archive (doi:10.1021/je700308j).
Several values for one entry are separate records, joined by “and”; a condition that tells them apart may be missing. Identical values can stand only once.

Legend:
[1] = xn = mol fraction of the nth substance listed; conditions: 298.15 K, 101 kPa, Liquid
[2] = heat capacity at constant pressure per volume; xn = mol fraction of the nth substance listed; conditions: 298.15 K, 101 kPa, Liquid, Flow calorimetry
[3] = excess molar enthalpy (molar enthalpy of mixing); xn = mol fraction of the nth substance listed; conditions: 101 kPa, Liquid, Flow calorimetry

CCCCCCO [hexan-1-ol] + C1CCOC1
Conditions	heat capacity, [2] [J/K/m3]	mass density, [1] [kg/m3]
x2 = 0.1191	1886000	820.48
x2 = 0.1994	1862000	824.38
x2 = 0.3032	1829000	829.77
x2 = 0.3931	1800000	834.74
x2 = 0.505	1759000	841.56
x2 = 0.6028	1719000	848.03
x2 = 0.6944	1678000	854.68
x2 = 0.7937	1628000	862.57
x2 = 0.8961	1574000	871.63

CCCCCCCO [heptan-1-ol] + C1CCOC1
Conditions	heat capacity, [2] [J/K/m3]	mass density, [1] [kg/m3]
x2 = 0.1103	1888000	822.54
x2 = 0.2085	1859000	826.55
x2 = 0.3123	1827000	831.18
x2 = 0.4046	1797000	835.76
x2 = 0.496	1765000	840.88
x2 = 0.5973	1725000	847.05
x2 = 0.6977	1680000	854.06
x2 = 0.8031	1627000	862.49
x2 = 0.9021	1572000	871.51

C1CCOC1 [tetrahydrofuran] + CCCCCCCCO
Conditions	heat capacity, [2] [J/K/m3]	mass density, [1] [kg/m3]
x1 = 0.0608	1927000	823.33
x1 = 0.088	1918000	824.18
x1 = 0.1954	1884000	827.86
x1 = 0.3048	1850000	832.05
x1 = 0.4026	1817000	836.34
x1 = 0.5009	1781000	841.27
x1 = 0.6069	1737000	847.37
x1 = 0.7044	1691000	853.86
x1 = 0.7994	1640000	861.36
x1 = 0.9	1580000	870.65
x1 = 0.9523	1546000	876.26

C1CCOC1 [tetrahydrofuran] + CO
Conditions	heat capacity, [2] [J/K/m3]	mass density, [1] [kg/m3]
x1 = 0.0989	1907000	804.78
x1 = 0.195	1850000	819.46
x1 = 0.2967	1797000	832.35
x1 = 0.4006	1747000	843.35
x1 = 0.4848	1714000	851
x1 = 0.5999	1667000	859.93
x1 = 0.6968	1631000	866.37
x1 = 0.7926	1594000	871.94
x1 = 0.8946	1555000	877.17

C1CCOC1 [tetrahydrofuran] + CCO
Conditions	heat capacity, [2] [J/K/m3]	mass density, [1] [kg/m3]
x1 = 0.0532	1907000	792.12
x1 = 0.0989	1889000	798.14
x1 = 0.2018	1849000	810.67
x1 = 0.3084	1808000	822.54
x1 = 0.4	1772000	832.02
x1 = 0.5015	1731000	841.8
x1 = 0.6074	1688000	851.3
x1 = 0.711	1643000	860.02
x1 = 0.8104	1599000	867.85
x1 = 0.9048	1556000	875.03
x1 = 0.9426	1540000	877.76

C1CCCC1 [cyclopentane] + CCCCO
[3], 298.15 K
Conditions	excess molar enthalpy
x1 = 0.098	0.022 kcal/mol
x1 = 0.196	0.0427 kcal/mol
x1 = 0.294	0.0637 kcal/mol
x1 = 0.393	0.0857 kcal/mol and 0.0846 kcal/mol
x1 = 0.493	0.104 kcal/mol
x1 = 0.593	0.118 kcal/mol
x1 = 0.694	0.124 kcal/mol
x1 = 0.796	0.116 kcal/mol
x1 = 0.897	0.0941 kcal/mol
x1 = 0.949	0.0739 kcal/mol

C1CCOC1 [tetrahydrofuran] + CCCO
Conditions	heat capacity, [2] [J/K/m3]	mass density, [1] [kg/m3]
x1 = 0.0482	1911000	804.27
x1 = 0.103	1891000	809.19
x1 = 0.1944	1858000	817.24
x1 = 0.3022	1819000	826.44
x1 = 0.3994	1782000	834.52
x1 = 0.499	1742000	842.64
x1 = 0.5994	1699000	850.66
x1 = 0.7016	1654000	858.7
x1 = 0.795	1610000	866.01
x1 = 0.9017	1560000	874.29
x1 = 0.9435	1541000	877.53

C1CCCC1 [cyclopentane] + CCCCCCCCCCO
excess molar enthalpy, [3]
Conditions	x1 = 0.336	x1 = 0.465	x1 = 0.575	x1 = 0.67	x1 = 0.752	x1 = 0.89	x1 = 0.975
298.15 K	0.0786 kcal/mol and 0.0778 kcal/mol	0.0965 kcal/mol	0.104 kcal/mol	0.105 kcal/mol	0.101 kcal/mol	0.0851 kcal/mol	–
298.65 K	–	–	–	–	–	–	0.0495 kcal/mol

C1CCOC1 [tetrahydrofuran] + CCCCO
Conditions	heat capacity, [2] [J/K/m3]	mass density, [1] [kg/m3]
x1 = 0.0456	1918000	808.89
x1 = 0.0951	1901000	812.34
x1 = 0.1935	1867000	819.24
x1 = 0.2997	1830000	826.84
x1 = 0.3963	1794000	833.86
x1 = 0.5009	1753000	841.67
x1 = 0.5988	1711000	849.16
x1 = 0.6962	1667000	856.68
x1 = 0.8012	1615000	865.12
x1 = 0.9017	1564000	873.45
x1 = 0.9472	1541000	877.34

C1CCCC1 [cyclopentane] + CCCCCCCCCO
[3], 298.15 K
Conditions	excess molar enthalpy [kcal/mol]
x1 = 0.171	0.0418
x1 = 0.316	0.0712
x1 = 0.442	0.091
x1 = 0.552	0.101
x1 = 0.649	0.104
x1 = 0.735	0.102
x1 = 0.812	0.0962
x1 = 0.881	0.0862
x1 = 0.943	0.07
x1 = 0.972	0.0548

C1CCCC1 [cyclopentane] + CCCCCCO
[3], 298.15 K
Conditions	excess molar enthalpy
x1 = 0.128	0.0277 kcal/mol
x1 = 0.249	0.0484 kcal/mol
x1 = 0.362	0.0707 kcal/mol
x1 = 0.469	0.0894 kcal/mol and 0.0897 kcal/mol
x1 = 0.57	0.102 kcal/mol
x1 = 0.665	0.108 kcal/mol
x1 = 0.756	0.105 kcal/mol
x1 = 0.841	0.0954 kcal/mol
x1 = 0.923	0.0778 kcal/mol
x1 = 0.962	0.0619 kcal/mol

CCCCCCCCCO [nonan-1-ol] + C1CCOC1
[1]
Conditions	mass density [kg/m3]
x2 = 0.1048	827.19
x2 = 0.1889	829.58
x2 = 0.3131	833.79
x2 = 0.4067	837.47
x2 = 0.504	841.9
x2 = 0.6004	847.05
x2 = 0.7009	853.33
x2 = 0.7999	860.89
x2 = 0.9015	870.34

CCCCCCCCC [nonane] + C1CCOC1
[3], 298.15 K
Conditions	excess molar enthalpy
x2 = 0.104	0.0714 kcal/mol
x2 = 0.197	0.124 kcal/mol
x2 = 0.355	0.189 kcal/mol
x2 = 0.485	0.213 kcal/mol
x2 = 0.595	0.212 kcal/mol
x2 = 0.688	0.195 kcal/mol
x2 = 0.768	0.169 kcal/mol
x2 = 0.837	0.134 kcal/mol
x2 = 0.898	0.0974 kcal/mol
x2 = 0.952	0.0514 kcal/mol and 0.0513 kcal/mol

CCCCCCCCCCO [decan-1-ol] + C1CCOC1
Conditions	heat capacity, [2] [J/K/m3]	mass density, [1] [kg/m3]
x2 = 0.0904	1904000	828.17
x2 = 0.2067	1869000	831.12
x2 = 0.3967	1810000	837.35
x2 = 0.5985	1734000	846.59
x2 = 0.7992	1635000	860.14
x2 = 0.8981	1573000	869.46

C1CCCC1 [cyclopentane] + CCCCCO
[3], 298.15 K
Conditions	excess molar enthalpy [kcal/mol]
x1 = 0.113	0.0229
x1 = 0.223	0.0451
x1 = 0.33	0.0674
x1 = 0.434	0.0882
x1 = 0.535	0.105
x1 = 0.633	0.115
x1 = 0.728	0.115
x1 = 0.821	0.105
x1 = 0.912	0.0849
x1 = 0.956	0.0674

C1CCCC1 [cyclopentane] + CCCCCCCO
[3], 298.15 K
Conditions	excess molar enthalpy
x1 = 0.143	0.0296 kcal/mol
x1 = 0.273	0.0554 kcal/mol
x1 = 0.392	0.0786 kcal/mol
x1 = 0.5	0.0937 kcal/mol
x1 = 0.6	0.104 kcal/mol
x1 = 0.692	0.106 kcal/mol
x1 = 0.778	0.102 kcal/mol
x1 = 0.857	0.0921 kcal/mol and 0.0923 kcal/mol
x1 = 0.931	0.075 kcal/mol
x1 = 0.966	0.0603 kcal/mol

C1CCCC1 [cyclopentane] + CCCCCCCCO
[3], 298.15 K
Conditions	excess molar enthalpy [kcal/mol]
x1 = 0.157	0.0349
x1 = 0.295	0.0632
x1 = 0.418	0.0844
x1 = 0.528	0.0971
x1 = 0.626	0.104
x1 = 0.715	0.105
x1 = 0.796	0.0987
x1 = 0.87	0.0889
x1 = 0.938	0.0725
x1 = 0.97	0.0576
